From ChEMBL document CHEMBL3832044, “DailyMed|setid=dd8d7ec8-79b0-4152-8789-d247c77232ce | ROSIGLITAZONE MALEATE - rosiglitazone maleate tablet|West-ward Pharmaceutical Corp”

Tests used:
Format in all cases: ADME, organism-based
[1] = tested on: Homo sapiens; test: Oral clearance of Rosiglitazone evaluated after oral or intravenous administration of C-14 Rosiglitazone Maleate; settings: in vivo, dosed compound id 5, dosed compound name ROSIGLITAZONE MALEATE
[2] = tested on: Homo sapiens; test: (§1) Mean pharmacokinetic parameters for Rosiglitazone following single oral doses to 32 healthy fasted or fed subjects.; parameters: dose 8 mg, dose 2 mg, dose 1 mg, route oral; settings: in vivo, po, dosed compound id 50, dosed compound name ROSIGLITAZONE, gender male and female, regimen Single dose, tissue Plasma
[3] = as §1; parameters: dose 8 mg, dose 2 mg, dose 1 mg, route oral; settings: human, in vivo; dietary status Fasting, dose 1 mg, dosed compound id 50, dosed compound name ROSIGLITAZONE, gender male and female, regimen Single dose, route oral, tissue Plasma
[4] = dietary status Fasting, dose 2 mg
[5] = dietary status Fasting, dose 8 mg

## CN(CCOc1ccc(CC2SC(=O)NC2=O)cc1)c1ccccn1.O=C(O)/C=C\C(=O)O (configuration not stated) [ROSIGLITAZONE MALEATE]
[1]; tissue Feaces
  Excretion: 23%
[1]; tissue Urine
  Excretion: 64%
[2]; [4]
  CL/F: 2.89 L/h
  t1/2: 3.15 h
[2]; [5]
  CL/F: 2.85 L/h
  t1/2: 3.37 h
[2]; dietary status Fed, dose 8 mg
  CL/F: 2.97 L/h
  t1/2: 3.59 h
[2]; dietary status Fed
  AUC(0 to inf): 2.89 µg·h/mL
  Cmax: 0.432 µg/mL
[3]
  CL/F: 50.5 mL/min
  half-life: 3.16 h
